Laboratory results published in paper PMC4062444, “Mechanisms of U87 Astrocytoma Cell Uptake and Trafficking of Monomeric versus Protofibril Alzheimer’s Disease Amyloid-β Proteins” (PLoS ONE, 2014).
Counter-ions that a name gives are not always drawn.

Experiments:
[1] = tested on: U87 human brain astrocytoma cell line; assay: Uptake of HiLyte Fluor555-tagged Aβ42 peptides by U87 cells (confocal microscopy); assay type: cell-based; conditions: for reduction of oAβ42 uptake by U87 cells / reduction of sAβ42 uptake by U87 cells: inhibitor pretreatment (5 mM amiloride 30 min; 300 nM wortmannin 1 h; 1 mM MβCD 30 min), integrated intracellular fluorescence vs mock-treated cells, >25 cells in each of three experiments; for reduction of oAβ42 uptake by U87 cells: then 0.4 µM HiLyte Fluor555-oAβ42 2 h at 37°C; for reduction of sAβ42 uptake by U87 cells: then 0.4 µM HiLyte Fluor555-sAβ42 2 h at 37°C; for effect of Dyn 1 dominant-negative K44A mutant on uptake: U87 cells expressing GFP-tagged Dyn1 K44A, 0.4 µM peptide 2 h at 37°C
Procedure: U87 cells were seeded on coverslips and grown at 37°C overnight in complete medium. Uptake experiments were initiated by incubating cells at 37°C with 0.4 µM HiLyte Fluor555-tagged Aβ42 peptides for 2 h, which were diluted in imaging medium (α-MEM without phenol red supplemented with 20 mM HEPES, pH 7.4, and 5% FBS). Cells were subsequently washed three times with ice-cold PBS, fixed with 3.7% PFA for 20 min and stained with 1 µg/ml DAPI diluted in PBS containing 0.1% saponin for 15 min at room temperature. Then, cells were mounted with a mounting solution containing 50% glycerol and 50% PBS. For endocytosis inhibition experiments, cells were pretreated with various endocytotic inhibitors with indicated times followed by Aβ42 peptides uptake in the presence or absence of these inhibitors.
Briefly, in most cases, the integrated intracellular signals were determined from a 2D projection image of the fluorescence intensities of a Z-stack lacking the most bottom and top planes as they mostly contain plasma membrane signals. The cell outline in each plane was determined by increasing the brightness of the image. In some cases, bright field images were also taken to help identify the cell outlines. The integrated fluorescence within the cell was background-corrected by subtraction of the fluorescence signal surrounding the cell under analysis and its value was then normalized to the mean (average) of the control cells set to 100. For plain cells in the absence or presence of various pharmacological treatment, all intact cells in each image field were used for quantification of Aβ uptake; for cells transfected with plasmids, only the positively transfected cells were used for quantification of Aβ uptake, which was estimated from the EGFP signal in green channel.

U87 cells [2] = assay: Localization of internalized Aβ42 within the endolysosomal system; assay type: cell-based, human; conditions: live-cell confocal; for fraction transported into early endosomes (EGFP-Rab5): U87 cells transfected with EGFP-Rab5, 0.4 µM peptide for 15 min, 30 min, 1 h or 2 h; for fraction localized to Lysotracker Green positive vesicles (lysosomes): U87 cells, 0.4 µM peptide for 30 min to 3 h, 50 nM LysoTracker Green
Procedure: The trafficking of fluro-tagged monomeric and oligomeric Aβ42 was measured as follows. To examine the localization in early endosomes, cells were transfected with EGFP-Rab5 plasmid to label early endosomes. 24 h after transfection, cells were treated with Aβ42 peptides for indicated time periods. After changing with the fresh imaging medium, live cell imaging was then taken using a confocal microscope with an objective heater (set at 37°C). To examine the localization of peptides in lysosomes, plain cells were first treated with Aβ42 peptides for indicated time periods, and 30 min before taking imaging, lysotracker Green were supplemented in the incubation medium (50 nM) to label lysosomes. Afterwards, fresh medium was changed and live cell imaging was taken.
Images were deconvolved using AutoQuant, a 50-pixel-wide rolling-ball subtraction algorithm was subsequently used to remove background noise. The sub-stacks of 3 sections spanning 0.4 µm were generated and imported to ImageJ for analysis. Manders’ coefficient was calculated using ImageJ plugin “JACop”. The percentage was scored as the Aβ puncta signals that are positive for EGFP-Rab5 or Lysotracker Green signals with respect to the total number of Aβ puncta.

ThT fluorescence assay = assay type: physicochemical; conditions: 10 µM ThT in deionized water, pH 7.4; ex 450 nm, em 482 nm; Aβ42 0 to 30 µM
Procedure: The assay was performed according to a standard protocol. A 200 µM aqueous Thioflavin T (ThT) was prepared and filtered through 0.22 µm filter. For measurement, Aβ42 samples (monomers or oligomers) were prepared in 10 µM ThT/deionized water solution, pH 7.4. Immediately after mixing, ThT fluorescence of samples was measured with the excitation wavelength at 450 nm and emission wavelength at 482 nm with 470 nm cut-off by a Microplate Reader (Molecular Devices, Sunnyvale, CA, USA).

U87 cells [3] = tested on: U87 cells
Procedure: Cells were incubated in fresh DMEM containing 0.4 µM fluro-tagged Aβ42 monomers or oligomers for 2 h. After extensively wash, cells were chased in fresh completed medium with indicated times up to 72 hours. Cells were subsequently fixed, stained with DAPI and mounted as described above. Images acquisition and analysis were performed as described below.
Estimation of the half-life and rate constants for degradation of Aβ42 peptides were made by fitting data using a single-phase exponential decay equation (Origin, ver. 6.0).

U87 cells [4] = tested on: U87 cells; remark: listed apart in the source
Procedure: Cells maintained in the serum free medium without Aβ were used as negative control. Following addition of 20 µl MTS reagent into each well, plates were incubated at 37°C for 4 h. The formazan product was quantified by measuring absorbance at 490 nm with a Microplate Reader (Molecular Devices, Sunnyvale, CA, USA). All the experiments were repeated three times.

[5] = Transmission electron microscopy of oligomer preparation; assay type: physicochemical; conditions: TEM, 100 µM oAβ42, 1% uranyl acetate stain, 32,000×
Procedure: Aβ42 oligomers were applied to formvar-coated 300-mesh copper grids for 2 min and excess fluid was filtered off. The samples were then stained with 1% uranyl acetate for 1 min, excess fluid was filtered off and the grids were examined with H-8100 transmission electron microscope (Hitachi, Tokyo, Japan) operated at 150 KV and 32,000× magnification.

astrocytic U87 cells = conditions: 20 µM Aβ, cited from earlier work
Description: We assumed that U87 cells tolerated the toxic effects of Aβ42 species better than the neurons, particularly because we used relatively low concentrations of Aβ peptides, which could be rapidly cleared by U87 cells and produced negligible cellular toxicity. This property assigns a neuronal protection role to astrocytes because they can promptly clear Aβ ...

Compound: COC[C@H]1OC(=O)c2coc3c2[C@@]1(C)C1=C(C3=O)[C@@H]2CCC(=O)[C@@]2(C)C[C@H]1OC(C)=O [wortmannin]
- reduction of oAβ42 uptake by U87 cells [1]: 37%
- reduction of sAβ42 uptake by U87 cells [1]: 55%

Compound: O=C(N/N=C/c1ccc(O)c(O)c1)c1cc2ccccc2cc1O [Dynasore]
- oAβ42 entry after Dynasore treatment ([1]; Dynasore pretreatment, then oAβ42 2 h at 37°C, confocal microscopy): almost entirely blocked
- internalization of sAβ42 after Dynasore treatment ([1]; Dynasore pretreatment, then sAβ42 2 h at 37°C, confocal microscopy): strongly blocked

Compound: N=C(N)NC(=O)c1nc(Cl)c(N)nc1N [amiloride, Amiloride hydrochloride hydrate]
- reduction of oAβ42 uptake by U87 cells [1]: 92%
- reduction of sAβ42 uptake by U87 cells [1]: 61%

Compound: sAβ42: soluble monomeric HiLyte Fluor555-labeled Aβ42 (Anaspec) dissolved in 0.1% NH4OH
- fraction transported into early endosomes (EGFP-Rab5) (U87 cells [2]): low fraction
- fraction localized to Lysotracker Green positive vesicles (lysosomes) (U87 cells [2]): increased with prolonged Aβ42 treating time
- ThT fluorescence after titration with Aβ42 solution (ThT fluorescence assay): basal fluorescence level
- half-time (t0.5) of degradation in U87 cells (U87 cells [3]): 2.68 h
- effect of Dyn 1 dominant-negative K44A mutant on uptake [1]: no effect
- U87 cell growth / viability (U87 cells [4]): not inhibited

Compound: oAβ42: protofibril, an oligomeric assembly of Aβ42 prepared from sAβ42 at pH 2.0, 37°C, 24 h
- fraction transported into early endosomes (EGFP-Rab5) (U87 cells [2]): low fraction
- fraction localized to Lysotracker Green positive vesicles (lysosomes) (U87 cells [2]): increased with prolonged Aβ42 treating time
- ThT fluorescence after titration with Aβ42 solution (ThT fluorescence assay): increased in a nearly linear-manner
- half-time (t0.5) of degradation in U87 cells (U87 cells [3]): 8.31 h
- effect of Dyn 1 dominant-negative K44A mutant on uptake [1]: no effect
- U87 cell growth / viability (U87 cells [4]): not inhibited
- average length of oligomers on electron micrographs [5]: < 150 nm
- diameter of oligomers on electron micrographs [5]: approximately 5 nm

Compound: Methyl-β-cyclodextrin [MβCD]
- reduction of oAβ42 uptake by U87 cells [1]: 48%
- reduction of sAβ42 uptake by U87 cells [1]: 46%

Compound: Aβ: Aβ used by Wang et al. (ref 36, amyloid-beta1–42) on U87 cells
- viability of U87 cells (astrocytic U87 cells; autophagic cell death): did decrease
- apoptosis of U87 cells (astrocytic U87 cells): not induced to undergo apoptosis
